The values below come from patent US11648254B2 (Kumquat Biosciences Inc., priority 2021, dated 2023).

Like-named read-outs stand apart in the source and are kept apart here. Some results are limits rather than exact numbers.

The target in one test is SOS1 (Homo sapiens (Human), UniProt Q07889). Kind of test: Ras-SOS interaction assay (HTRF). Format: biochemical.
In test [1] the test system is MIA PaCa-2 cells (K-Ras G12C). Kind of test: Ras-SOS cellular growth inhibition assay (CellTiter-Glo, 3D). Particulars: Homo sapiens. Format: cell-based. The method, boiled down: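 MIA PaCa-2 cells grown in ultra-low-attachment plates (3D) in DMEM/Ham's F12 with 10% FCS and 2.5% horse serum, treated the day after seeding with a 9-point 3-fold compound series for about 5 days. Viability by CellTiter-Glo luminescence; IC50 from four-parameter fit.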

For test [2], the system named is NCI-H1975 cells (EGFR T790M L858R). Kind of test: EGFR-SOS cellular inhibition assay (CellTiter-Glo, 3D). The class given is cell-based. Particulars: Homo sapiens.
Setting [3] is: K-RasG13D utilized, read-out: IC50 inhibition of SOS.
Where [4] appears, read: MIA PaCa-2, 120 h, MIA PaCa-2, 3D proliferation, about 5 days, read-out: Bio-Cell-Prolif-3D (MiaPaca2 IC50).
Where [5] appears, read: 120 h, NCI-H1975, 3D proliferation, about 5 days, read-out: Bio-Cell-Prolif-3D (H1975 IC50).
Setting [6] is: NCI-H1975, EGFR T790M L858R, read-out: IC50 in inhibiting growth of NCI-H1975 cell line.
Setting [7] is: K-RasG13D, read-out: IC50 value against SOS1.
[8] abbreviates: MIA PaCa-2, MIA PaCa-2, read-out: IC50 in inhibiting MIA PaCa-2 cell growth.

Chain of SOS1 (Q07889 564-1049): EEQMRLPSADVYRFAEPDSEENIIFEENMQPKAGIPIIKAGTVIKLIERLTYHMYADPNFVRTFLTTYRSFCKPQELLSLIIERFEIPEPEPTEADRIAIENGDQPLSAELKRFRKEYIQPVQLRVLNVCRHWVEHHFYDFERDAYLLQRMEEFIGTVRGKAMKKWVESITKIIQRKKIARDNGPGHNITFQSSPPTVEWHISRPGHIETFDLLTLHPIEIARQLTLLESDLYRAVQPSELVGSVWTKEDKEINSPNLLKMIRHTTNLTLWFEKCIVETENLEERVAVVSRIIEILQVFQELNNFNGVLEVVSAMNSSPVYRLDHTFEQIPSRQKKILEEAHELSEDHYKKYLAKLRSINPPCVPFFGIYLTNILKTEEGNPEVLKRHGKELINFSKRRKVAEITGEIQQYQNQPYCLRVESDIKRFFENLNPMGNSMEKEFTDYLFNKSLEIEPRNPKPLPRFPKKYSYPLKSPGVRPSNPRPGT

Consider `COc1nc2ncnc(N[C@H](C)c3cccc(C(F)F)c3F)c2cc1C1CCS(=O)(=O)CC1` [Compound 315, (R)-4-(4-((1-(3-(difluoromethyl)-2-fluorophenyl)ethyl)amino)-7-methoxypyrido[2,3-d]pyrimidin-6-yl)tetrahydro-2H-thiopyran 1,1-dioxide], for which the IC50 at SOS1 (setting [3]) is under 100 nM; in test [1] (setting [4]) it was 1000 to 10000 nM; in test [2] (setting [5]), at most 1000 nM; in test [2] (setting [6]), under 500 nM.
With `COc1nc2nc(C)nc(N[C@H](C)c3cccc(C(F)(F)F)c3F)c2cc1C1CCN(C(=O)C2CN(C)CCO2)CC1` (stereo partly drawn) [Compound 167, (4-(4-(((R)-1-(2-fluoro-3-(trifluoromethyl)phenyl)ethyl)amino)-7-methoxy-2-methylpyrido[2,3-d]pyrimidin-6-yl)piperidin-1-yl)(4-methylmorpholin-2-yl)methanone], the IC50 is under 100 nM at SOS1 (setting [3]), under 50 nM at SOS1 (setting [7]), 1000 to 10000 nM in test [1] (setting [4]) and at most 1000 nM in test [2] (setting [5]).
On to `COc1nc2nc(C)nc(N[C@H](C)c3cccc(C(F)(F)C(C)(C)O)c3)c2cc1C1CCN(C(C)C)CC1` [Compound 212, (R)-1,1-difluoro-1-(3-(1-((6-(1-isopropylpiperidin-4-yl)-7-methoxy-2-methylpyrido[2,3-d]pyrimidin-4-yl)amino)ethyl)phenyl)-2-methylpropan-2-ol], for which the half-maximal inhibitory concentration (IC50) on SOS1 (setting [3]) is under 100 nM; on SOS1 (setting [7]) it was under 50 nM; in test [1] (setting [4]), at most 1000 nM; in test [1] (setting [8]), under 500 nM; in test [2] (setting [5]) it was at most 1000 nM; in test [2] (setting [6]), under 500 nM.
On to `COc1nc2ncnc(N[C@H](C)c3cccc(C(F)(F)F)c3F)c2cc1N1CCN(C2CCOCC2)CC1` [Compound 166, (R)-N-(1-(2-fluoro-3-(trifluoromethyl)phenyl)ethyl)-7-methoxy-6-(4-(tetrahydro-2H-pyran-4-yl)piperazin-1-yl)pyrido[2,3-d]pyrimidin-4-amine], for which the IC50 at SOS1 (setting [3]) was under 100 nM; on SOS1 (setting [7]), under 50 nM; in test [1] (setting [4]), at most 1000 nM; in test [1] (setting [8]), under 500 nM; in test [2] (setting [5]), at most 1000 nM; in test [2] (setting [6]), under 500 nM.
With `COc1nc2nc(C)nc(N[C@H](C)c3cccc(C(F)(F)F)c3C)c2cc1N1CCS(=O)(=O)CC1` [Compound 142, (R)-4-(7-methoxy-2-methyl-4-((1-(2-methyl-3-(trifluoromethyl)phenyl)ethyl)amino)pyrido[2,3-d]pyrimidin-6-yl)thiomorpholine 1,1-dioxide], the IC50 on SOS1 (setting [3]) was under 100 nM; on SOS1 (setting [7]), under 50 nM; in test [1] (setting [4]), at most 1000 nM; in test [1] (setting [8]), under 500 nM; in test [2] (setting [5]), at most 1000 nM; in test [2] (setting [6]), under 500 nM.
For `COc1nc2nc(OC3CN(C(C)C)C3)nc(N[C@H](C)c3cccc(C(F)F)c3F)c2cc1C1(C#N)CC1` [Compound 240, (R)-1-(4-((1-(3-(difluoromethyl)-2-fluorophenyl)ethyl)amino)-2-((1-isopropylazetidin-3-yl)oxy)-7-methoxypyrido[2,3-d]pyrimidin-6-yl)cyclopropane-1-carbonitrile], the IC50 at SOS1 (setting [3]) is 100 to 1000 nM; in test [1] (setting [4]), at most 1000 nM; in test [1] (setting [8]), under 500 nM; in test [2] (setting [5]), at most 1000 nM; in test [2] (setting [6]), under 500 nM.
On to `Cc1nc(N[C@H](C)c2cccc(C(F)F)c2F)c2cc(N3CCN(C(C)C)CC3)c(OC3CNC3)nc2n1` [Compound 367, (R)-7-(azetidin-3-yloxy)-N-(1-(3-(difluoromethyl)-2-fluorophenyl)ethyl)-6-(4-isopropylpiperazin-1-yl)-2-methylpyrido[2,3-d]pyrimidin-4-amine], for which the IC50 was under 100 nM at SOS1 (setting [3]); under 50 nM at SOS1 (setting [7]); 1000 to 10000 nM in test [1] (setting [4]); at most 1000 nM in test [2] (setting [5]); under 500 nM in test [2] (setting [6]).
`Cc1nc(N[C@H](C)c2cccc(C(F)F)c2F)c2cc(S(=O)(=O)C3CCN(C)CC3)c(C)nc2n1` [Compound 138, (R)-N-(1-(3-(difluoromethyl)-2-fluorophenyl)ethyl)-2,7-dimethyl-6-((1-methylpiperidin-4-yl)sulfonyl)pyrido[2,3-d]pyrimidin-4-amine]: the IC50 at SOS1 (setting [7]) is under 50 nM; in test [1] (setting [4]) it was at most 1000 nM; in test [1] (setting [8]), under 500 nM; in test [2] (setting [5]) it was at most 1000 nM; in test [2] (setting [6]), under 500 nM.
`COc1nc2ncnc(N[C@H](C)c3cccc(C(F)(F)F)c3C)c2cc1N1CCN(C)CC1` [Compound 386, (R)-7-methoxy-N-(1-(2-methyl-3-(trifluoromethyl)phenyl)ethyl)-6-(4-methylpiperazin-1-yl)pyrido[2,3-d] pyrimidin-4-amine]: the IC50 on SOS1 (setting [3]) is under 100 nM; at SOS1 (setting [7]), under 50 nM; in test [1] (setting [4]), at most 1000 nM; in test [1] (setting [8]), under 500 nM; in test [2] (setting [5]), at most 1000 nM; in test [2] (setting [6]), under 500 nM.
Regarding `CNCCOc1nc2nc(C)nc(N[C@H](C)c3cccc(C(F)F)c3F)c2cc1C1CCN(C(C)C)CC1` [Compound 404, (R)-N-(1-(3-(difluoromethyl)-2-fluorophenyl)ethyl)-6-(1-isopropylpiperidin-4-yl)-2-methyl-7-(2-(methylamino)ethoxy)pyrido[2,3-d] pyrimidin-4-amine], the IC50 on SOS1 (setting [3]) was under 100 nM; at SOS1 (setting [7]) it was under 50 nM; in test [1] (setting [4]), 1000 to 10000 nM; in test [2] (setting [5]), 1000 to 10000 nM.
As to `CC(C)N1CCC(c2cc3c(N[C@H](C)c4cccc(C(F)F)c4F)ncnc3nc2OC2CN(C)C2)CC1` [Compound 187, (R)-N-(1-(3-(difluoromethyl)-2-fluorophenyl)ethyl)-6-(1-isopropylpiperidin-4-yl)-7-((1-methylazetidin-3-yl)oxy)pyrido[2,3-d]pyrimidin-4-amine], the IC50 on SOS1 (setting [3]) was under 100 nM; at SOS1 (setting [7]), under 50 nM; in test [1] (setting [4]), 1000 to 10000 nM; in test [2] (setting [5]), 1000 to 10000 nM.
`COc1nc2nc(C)nc(N[C@H](C)c3cccc(C(F)(F)F)c3F)c2cc1N1CCN(C(=O)CO)CC1` [Compound 313, (R)-1-(4-(4-((1-(2-fluoro-3-(trifluoromethyl)phenyl)ethyl)amino)-7-methoxy-2-methylpyrido[2,3-d]pyrimidin-6-yl)piperazin-1-yl)-2-hydroxyethan-1-one]: the IC50 was under 100 nM on SOS1 (setting [3]); under 50 nM at SOS1 (setting [7]); at most 1000 nM in test [1] (setting [4]); under 500 nM in test [1] (setting [8]); at most 1000 nM in test [2] (setting [5]); under 500 nM in test [2] (setting [6]).
`Cc1nc(N[C@H](C)c2cccc(C(F)F)c2F)c2cc(C3CCN(C(C)C)CC3)c(NC3COC3)nc2n1` [Compound 407, (R)-N4-(1-(3-(difluoromethyl)-2-fluorophenyl)ethyl)-6-(1-isopropylpiperidin-4-yl)-2-methyl-N7-(oxetan-3-yl)pyrido [2,3-d]pyrimidine-4,7-diamine]: the IC50 on SOS1 (setting [3]) was under 100 nM; at SOS1 (setting [7]), under 50 nM; in test [1] (setting [4]), 1000 to 10000 nM; in test [2] (setting [5]), 1000 to 10000 nM.
For the compound `Cc1nc(N[C@H](C)c2cccc(C(F)F)c2F)c2cc(C3(C(F)F)CC3)c(OC3CN(C)C3)nc2n1` [Compound 190, (R)-N-(1-(3-(difluoromethyl)-2-fluorophenyl)ethyl)-6-(1-(difluoromethyl)cyclopropyl)-2-methyl-7-((1-methylazetidin-3-yl)oxy)pyrido[2,3-d] pyrimidin-4-amine], the IC50 is under 100 nM at SOS1 (setting [3]); under 50 nM at SOS1 (setting [7]); at most 1000 nM in test [1] (setting [4]); under 500 nM in test [1] (setting [8]); at most 1000 nM in test [2] (setting [5]); under 500 nM in test [2] (setting [6]).
